Experiments:
Test in all cases: relative viability (nuclei count vs DMSO), 5 days (fraction); higher = more cells survive
[1] = compound: CC1=C(C(=NN1)C)CC2=C(C3=C(S2)N(C(=O)N(C3=O)C)CC(C)C)C(=O)N4C[C@@H](CO4)O + CC1(C)CCC(c2ccc(Cl)cc2)=C(CN2CCN(c3ccc(C(=O)NS(=O)(=O)c4ccc(N[C@H](CCN5CCOCC5)CSc5ccccc5)c(S(=O)(=O)C(F)(F)F)c4)cc3)CC2)C1 [Navitoclax] (partner 0.5 µM)
Procedure, shortened: (§1)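 Lung cancer cell lines, seeded in 1536-well plates, were treated the following day by pin tool with a single drug or with five library-drug doses (not always all listed) in √10 steps on top of a fixed anchor-drug dose. Cells were fixed and nuclei stained in one step after 5 days, and nuclei were counted. Relative viability is the nuclei count for treated wells divided by that for vehicle wells, reported as medians of duplicate plates.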

IDH-C35 + Crizotinib = compound: Cc1ccccc1C(C(=O)NC1CCCCC1)N(C(=O)Cn1ccnc1C)c1cccc(F)c1 [IDH-C35] + C[C@@H](Oc1cc(-c2cnn(C3CCNCC3)c2)cnc1N)c1c(Cl)ccc(F)c1Cl [Crizotinib] (partner 1 µM)
Procedure, shortened: as §1

IDH-C35 + Linsitinib = compound: Cc1ccccc1C(C(=O)NC1CCCCC1)N(C(=O)Cn1ccnc1C)c1cccc(F)c1 [IDH-C35] + C[C@]1(O)C[C@@H](c2nc(-c3ccc4ccc(-c5ccccc5)nc4c3)c3c(N)nccn32)C1 [Linsitinib] (partner 1 µM)
Procedure, shortened: as §1

[2] = compound: CC1=C(C(=NN1)C)CC2=C(C3=C(S2)N(C(=O)N(C3=O)C)CC(C)C)C(=O)N4C[C@@H](CO4)O + CC(=O)c1c(C)c2cnc(Nc3ccc(N4CCNCC4)cn3)nc2n(C2CCCC2)c1=O [Palbociclib] (partner 0.5 µM)
Procedure, shortened: as §1

Cell Line	relative viability ([1]; first compound 0.0025 µM)	relative viability ([1]; first compound 0.007906 µM)	relative viability ([1]; first compound 0.025 µM)	relative viability ([1]; first compound 0.07906 µM)	relative viability ([1]; first compound 0.25 µM)	relative viability (IDH-C35 + Crizotinib; first compound 0.08 µM)	relative viability (IDH-C35 + Crizotinib; first compound 0.253 µM)	relative viability (IDH-C35 + Crizotinib; first compound 0.8 µM)	relative viability (IDH-C35 + Crizotinib; first compound 2.53 µM)	relative viability (IDH-C35 + Crizotinib; first compound 8 µM)	relative viability (IDH-C35 + Linsitinib; first compound 0.08 µM)	relative viability (IDH-C35 + Linsitinib; first compound 0.253 µM)	relative viability (IDH-C35 + Linsitinib; first compound 0.8 µM)	relative viability (IDH-C35 + Linsitinib; first compound 2.53 µM)	relative viability (IDH-C35 + Linsitinib; first compound 8 µM)	relative viability ([2]; first compound 0.0025 µM)	relative viability ([2]; first compound 0.007906 µM)	relative viability ([2]; first compound 0.025 µM)	relative viability ([2]; first compound 0.07906 µM)	relative viability ([2]; first compound 0.25 µM)
HCC-44	0.925	1.08	1.04	0.892	1.19	0.848	0.794	0.719	0.801	0.733	0.656	0.628	0.647	0.876	0.69	0.989	0.992	0.961	0.894	1.05
HCC-78	0.834	0.743	0.868	0.716	0.768	0.343	0.349	0.342	0.322	0.303	0.54	0.495	0.497	0.382	0.453	0.534	0.546	0.464	0.469	0.44
HCC-366	1.09	0.997	1.05	1.03	1.13	0.546	0.51	0.564	0.546	0.42	0.619	0.647	0.553	0.601	0.606	0.377	0.406	0.387	0.372	0.523
HCC-827	0.983	1.08	1.03	1.04	1.04	0.911	0.956	0.911	0.876	0.957	0.99	0.889	0.98	0.837	1	0.403	0.414	0.339	0.541	0.466
HOP-62	1.15	1.03	0.857	1.08	0.857	0.839	1.04	0.832	–	0.925	1.15	0.803	0.924	–	1.01	0.409	0.418	0.461	0.404	0.574
IA-LM	0.738	0.796	0.912	0.784	0.722	0.94	0.874	0.741	0.755	0.704	0.876	0.776	0.628	0.621	0.589	–	–	–	–	–
LCLC-103H	–	–	–	–	–	1.01	1.07	1	1.07	0.987	1.21	1.01	0.98	1.13	1.07	0.426	0.471	0.508	0.478	0.443
NCI-H358	–	–	–	–	–	0.67	0.516	0.559	0.505	0.589	0.746	0.719	0.786	0.713	0.649	0.144	0.132	0.12	0.121	0.14
NCI-H522	–	–	–	–	–	–	–	–	–	–	–	–	–	–	–	1.08	1.02	0.852	0.521	0.618
NCI-H596	1.06	1.16	0.931	1.01	1.16	0.831	0.966	1.08	1.02	0.973	1.14	1.14	0.986	1.14	1.13	–	–	–	–	–
NCI-H650	–	–	–	–	–	0.671	0.677	0.9	–	0.689	1.09	1.05	0.799	–	0.771	0.345	0.353	0.274	0.334	0.347
NCI-H661	–	–	–	–	–	0.969	0.973	–	0.975	0.971	0.625	0.54	0.51	0.54	0.644	0.395	0.426	0.455	0.396	0.426
NCI-H1299	1.08	1.04	1.08	1.05	0.987	0.97	0.953	0.981	0.923	0.93	1.11	0.969	0.976	1	0.957	–	–	–	–	–
NCI-H1395	1.09	0.931	1.01	0.859	0.886	–	–	–	–	–	1.2	1.04	1.1	1.09	0.956	0.682	0.614	0.595	0.606	0.663
NCI-H1563	–	–	–	–	–	0.874	0.907	0.861	0.92	0.854	1.15	1.3	1.15	1.2	1.16	–	–	–	–	–
NCI-H1648	–	–	–	–	–	–	–	–	–	–	–	–	–	–	–	0.261	0.271	0.297	0.207	0.283
NCI-H1650	1.37	1.22	1.2	1.27	1.21	0.796	0.978	0.965	0.914	0.923	–	–	–	–	–	0.344	0.351	0.374	0.327	0.347
NCI-H1703	1.36	1.4	0.972	0.928	0.744	0.582	0.875	1.09	0.636	0.823	0.821	0.787	0.632	0.778	0.536	–	–	–	–	–
NCI-H1793	0.617	0.415	0.411	0.435	0.501	–	–	–	–	–	0.908	0.808	0.859	0.85	0.773	0.3	0.36	0.324	0.313	0.3
NCI-H2170	0.613	0.747	0.556	0.612	0.543	1.25	1.2	1.14	1.17	1.22	–	–	–	–	–	0.432	0.446	0.431	0.39	0.409
NCI-H2342	–	–	–	–	–	–	–	–	–	–	–	–	–	–	–	0.514	0.562	0.442	0.502	0.593
SW 900	–	–	–	–	–	–	–	–	–	–	–	–	–	–	–	0.541	0.583	0.624	0.497	0.651

Source: the supplement of paper PMC10307832
